# In patent US6815577B1, “Method of hybrid seed production using conditional female sterility” (Syngenta Participations AG, priority 1997, dated 2004):
# How the values were obtained:
# [1] = test system: transgenic plants expressing bacterial cytochrome P450 gene in tapetal cells; conditions: WO 91/03561; O'Keefe et al. 1994; cited from earlier work
# [2] = test system: transgenic plants expressing phosphonate monoester hydrolase gene in tapetal cells; conditions: Dotson et al. 1996; cited from earlier work
# [3] = test system: plants transformed with pFA200 or pSH74 or p19arg; experiment: Acetyl-PPT treatment of plants conferring conditional female sterility; format: in vivo; conditions: T1 plants with pFA200 or pSH74 or p19arg, treated during the growing stages; untreated plants fully fertile
# Protocol: (§1) Seed from the T1 generation from plants transformed with pFA200 or pSH74 or p19arg (conferring conditional female sterility) and plants transformed with pMA200 or pSH68 or pZmgarg (conferring conditional male sterility) are planted in soil. Once plantlets have grown to a sufficient size, leaf tissue is analyzed by PCR for the presence of the argE transgene. PCR positive plants are transferred to the greenhouse. These plants are fully fertile. A subset of the plants containing pFA200 or pSH74 or p19arg and a subset containing pMA200 or pSH68 or pZmarg are treated with the protoxin acetyl-PPT during the growing stages. […] The untreated plants transformed with pFA200 or pSH74 or p19arg and pMA200 or pSH68 or pZmgarg are fully fertile.
# [4] = test system: conditional female sterile plants (transformed with pFA100); experiment: Acetyl-PPT treatment of conditional female sterile tobacco plants; format: in vivo; conditions: T1 tobacco, pFA100 (Stig1-argE), treated during the growing stages; untreated plants remain fully fertile
# From the text: Plasmid pFA100 is constructed in a manner similar to pSH58, above, except that the argE gene (SEQ ID NO:3) replaces the GUS gene in Stig1-GUS (Goldman et al., EMBO J. 13:2976-2984 (1994)) in the correct translational reading frame using appropriate restriction enzymes. The STIG1-argE fusion is then ligated into a vector such as pCIB200 containing T-DNA borders, 3′ termination sequences and a functional plant selectable marker such as kanamycin resistance. The Stig1 promoter is a female-preferential promoter.
# Tobacco leaf discs are transformed as described in Horsch et al., Science 227:1229-1231 (1985) with pSH58. The presence of the integrated transgenes is confirmed by PCR. Northern analysis of RNA made from female tissue is used to confirm tissue-specific expression of the argE gene in the transgenic plants. These plants are self-fertile and have the phenotype of conditional female sterility. T1 seed is collected after self-pollination. The female conditional transgene in pFA100 is also introduced into tobacco using similar procedures.
# Seed of the T1 generation from both conditional female sterile plants (transformed with pFA100) and conditional male sterile plants (transformed with pGK73) are planted in soil. Once plantlets have grown to a sufficient size, leaf tissue is analyzed by PCR for the presence of the argE transgene. PCR positive plants are transferred to the greenhouse. […]
# [5] = test system: conditional male sterile plants (transformed with pGK73); experiment: Acetyl-PPT treatment of conditional male sterile tobacco plants; format: in vivo; conditions: T1 tobacco, pGK73 (TA29-argE), treated during the growing stages; untreated plants remain fully fertile
# From the text: Tobacco leaf discs are also transformed with pGK73, containing an expression cassette of the argE gene under the control of the TA29 promoter (Kriete et al., Plant J. 9:809-818 (1996)) as described in Horsch et al., Science 227:1229-1231 (1985). The presence of the integrated transgenes are confirmed by PCR. Northern analysis of RNA made from anthers is used to confirm tissue-specific expression of the argE gene in the transgenic plants. These plants are self-fertile and have the phenotype of conditional male sterility. Seed of the T1 generation is collected after self-pollination.
# Seed of the T1 generation from both conditional female sterile plants (transformed with pFA100) and conditional male sterile plants (transformed with pGK73) are planted in soil. Once plantlets have grown to a sufficient size, leaf tissue is analyzed by PCR for the presence of the argE transgene. PCR positive plants are transferred to the greenhouse. These plants are fully fertile in the absence of exogenously-applied protoxin. A subset of the conditional female sterile plants and a subset of the conditional male sterile plants are treated with the protoxin acetyl-PPT during the growing stages. […] The untreated plants remain fully fertile. Pollen from the treated female sterile plants is collected and used to pollinate the pistils of treated male sterile plants, which are the female parent plants. […]
# [6] = test system: plants transformed with pMA200 or pSH68 or pZmgarg; experiment: Acetyl-PPT treatment of plants conferring conditional male sterility; format: in vivo; conditions: T1 plants with pMA200 or pSH68 or pZmgarg, treated during the growing stages; untreated plants fully fertile
# Protocol: as §1
# [7] = test system: transgenic plants expressing N-acetyl-L-ornithine deacetylase gene in tapetal cells; conditions: Kriete et al. 1996; EP 531,716; cited from earlier work
smiles,measurement,setting,value
"COc1cc(OC)nc(NC(=O)NS(=O)(=O)c2cccc3c2S(=O)(=O)N(C(C)C)C3)n1 [R7402, 2-methylethyl-2,2-dihydro-N-[(4,6-dimethoxypyrimidin-2-yl)aminocarbonyl]-1,2-benzoiaothiazole-7-sulfonamide-1,1-dioxide]",male fertility after protoxin treatment,[1],rendered male sterile
"O=C(O)CNCP(=O)(O)OCC(O)CO (stereo not shown) [glycerol glyphosate, glyceryl glyphosate]",male fertility after protoxin treatment,[2],rendered male sterile
"CC(=O)NC(CCP(C)(=O)O)C(=O)O (stereo not shown) [acetyl-PPT, N-acetyl phosphinothricin]",fertility of treated plants (female reproductive structures),[3],are female sterile
same,fertility of treated conditional female sterile plants,[4],become female sterile
same,fertility of treated conditional male sterile plants,[5],become male sterile
same,fertility of treated plants (male reproductive structures),[6],are male sterile
CC(=O)N[C@@H](CCP(C)(=O)O)C(=O)O [N-acetyl-L-phosphinothricin],male fertility after protoxin treatment,[7],rendered male sterile
